This note sets out measurements from patent publication US8461328B2, “Tricyclic heterocyclic compounds, compositions and methods of use thereof” (Genentech, Inc., priority 2010, dated 2013).

Assay type in all cases: biochemical
For one assay, the target named is T1, TYK2 (Homo sapiens, UniProt P29597).
T1 construct: made in house; host or cells: SF9 insect cells (baculovirus)
T1 sequence (P29597 873-1187): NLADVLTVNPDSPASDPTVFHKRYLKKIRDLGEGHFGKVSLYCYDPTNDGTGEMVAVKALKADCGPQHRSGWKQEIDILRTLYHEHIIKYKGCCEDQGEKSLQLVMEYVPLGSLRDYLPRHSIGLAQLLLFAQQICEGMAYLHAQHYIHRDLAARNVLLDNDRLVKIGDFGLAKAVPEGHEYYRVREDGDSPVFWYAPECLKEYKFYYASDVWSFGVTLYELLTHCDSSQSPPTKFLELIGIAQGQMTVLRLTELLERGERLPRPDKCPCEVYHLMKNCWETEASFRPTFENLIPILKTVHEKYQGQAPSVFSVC
The assay can be described thus: TYK2 inhibition (Table 4).

The target of the next assay is T2, JAK3 (Homo sapiens, UniProt P52333).
T2 construct: made in house; host or cells: SF9 insect cells (baculovirus)
In words: JAK3 inhibition (Table 4). The settings on record: read-out: JAK3 Ki.

Another assay deals with T3, JAK2 (Homo sapiens, UniProt O60674).
T3 construct: made in house; host or cells: SF9 insect cells (baculovirus)
The assay can be described thus: JAK2 inhibition (Table 4). To be noted: read-out: JAK2 Ki.

Another assay addresses T4, JAK1 (Homo sapiens, UniProt P23458).
T4 construct: made in house; host or cells: SF9 insect cells (baculovirus)
In words: JAK1 inhibition (Table 4). To be noted: read-out: JAK1 Ki.

Molecules are shown by their SMILES.

T3 sequence (O60674 812-1132): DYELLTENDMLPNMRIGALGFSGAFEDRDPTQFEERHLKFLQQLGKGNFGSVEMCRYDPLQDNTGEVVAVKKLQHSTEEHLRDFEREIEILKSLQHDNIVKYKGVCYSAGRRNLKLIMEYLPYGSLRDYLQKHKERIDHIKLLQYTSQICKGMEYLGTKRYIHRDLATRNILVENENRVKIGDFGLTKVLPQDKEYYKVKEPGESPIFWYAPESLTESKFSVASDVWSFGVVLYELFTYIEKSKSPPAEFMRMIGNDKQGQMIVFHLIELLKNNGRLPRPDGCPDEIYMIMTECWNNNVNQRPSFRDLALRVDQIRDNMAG
T2 sequence (P52333 783-1124): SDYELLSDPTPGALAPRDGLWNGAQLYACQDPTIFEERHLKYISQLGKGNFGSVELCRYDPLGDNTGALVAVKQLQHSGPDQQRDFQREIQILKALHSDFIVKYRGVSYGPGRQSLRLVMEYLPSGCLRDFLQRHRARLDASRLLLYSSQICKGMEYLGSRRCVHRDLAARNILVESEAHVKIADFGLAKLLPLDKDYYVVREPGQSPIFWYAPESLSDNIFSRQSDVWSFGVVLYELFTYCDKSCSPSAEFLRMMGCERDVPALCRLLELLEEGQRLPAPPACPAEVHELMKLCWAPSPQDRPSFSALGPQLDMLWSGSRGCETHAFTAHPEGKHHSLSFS
T4 sequence (P23458 852-1154): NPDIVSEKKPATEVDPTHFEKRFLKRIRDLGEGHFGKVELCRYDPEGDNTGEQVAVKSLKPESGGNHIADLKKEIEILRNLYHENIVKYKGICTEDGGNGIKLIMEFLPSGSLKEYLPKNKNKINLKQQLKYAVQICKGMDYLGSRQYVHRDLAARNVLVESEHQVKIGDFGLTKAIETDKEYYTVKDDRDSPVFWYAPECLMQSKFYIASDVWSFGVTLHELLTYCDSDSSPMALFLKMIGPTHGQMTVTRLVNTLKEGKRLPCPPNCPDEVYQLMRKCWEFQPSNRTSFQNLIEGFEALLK

As for `CCN1CC[C@@H](n2c(CCNC(C)=O)nc3cnc4[nH]ccc4c32)[C@@H](F)C1` [Example 811, N-{2-[1-((3S,4R)-1-Ethyl-3-fluoro-piperidin-4-yl)-1,6-dihydro-1,3,5,6-tetraaza-as-indacen-2-yl]-ethyl}-acetamide], the inhibitory constant (Ki) at TYK2 is 519 nM; at JAK3 it was 130 nM; at JAK2 it was 62.9 nM; on JAK1, 6.78 nM.
With `N#CCCN1CCC(n2c(CC3CCOCC3)nc3cnc4[nH]ccc4c32)CC1` [Example 812, 3-{4-[2-(Tetrahydro-pyran-4-ylmethyl)-6H-1,3,5,6-tetraaza-as-indacen-1-yl]-piperidin-1-yl}-propionitrile], the Ki is 316 nM on TYK2, 168 nM on JAK3, 213 nM on JAK2 and 37.8 nM at JAK1.
The matching figures for `N#CCCN1CCC(n2c(CC3CCCO3)nc3cnc4[nH]ccc4c32)CC1` (centres unmarked) [Example 813, 3-{4-[2-(Tetrahydro-furan-2-ylmethyl)-6H-1,3,5,6-tetraaza-as-indacen-1-yl]-piperidin-1-yl}-propionitrile]: 365 nM, 39.9 nM, 43 nM and 21.1 nM.
The matching figures for `Cn1ccc(CCc2nc3cnc4[nH]ccc4c3n2C2CCN(CCC#N)CC2)n1` [Example 814, 3-(4-{2-[2-(1-Methyl-1H-pyrazol-3-yl)-ethyl]-6H-1,3,5,6-tetraaza-as-indacen-1-yl}-piperidin-1-yl)-propionitrile]: 580 nM, 90.7 nM, 88.4 nM and 11.2 nM.
The matching figures for `CCc1nccn1CCc1nc2cnc3[nH]ccc3c2n1C1CCN(CCC#N)CC1` [Example 815, 3-(4-{2-[2-(2-Ethyl-imidazol-1-yl)-ethyl]-6H-1,3,5,6-tetraaza-as-indacen-1-yl}-piperidin-1-yl)-propionitrile]: 254 nM, 191 nM, 91.8 nM and 23.5 nM.
`CC(C)c1nccn1CCc1nc2cnc3[nH]ccc3c2n1C1CCN(CCC#N)CC1` [Example 816, 3-(4-{2-[2-(2-Isopropyl-imidazol-1-yl)-ethyl]-6H-1,3,5,6-tetraaza-as-indacen-1-yl}-piperidin-1-yl)-propionitrile]: the Ki amounted to 90.3 nM on TYK2, 90.8 nM at JAK3, 19.6 nM at JAK2 and 7.69 nM at JAK1.
The matching figures for `CC(F)(F)CCc1nc2cnc3[nH]ccc3c2n1C1CCN(CCC#N)CC1` [Example 817, 3-{4-[2-(3,3-Difluoro-butyl)-6H-1,3,5,6-tetraaza-as-indacen-1-yl]-piperidin-1-yl}-propionitrile]: 207 nM, 63.7 nM, 43 nM and 8.58 nM.
The matching figures for `C[C@@H](O)c1nc2cnc3[nH]ccc3c2n1C1CCN(Cc2cnn(C)c2)CC1` [Example 818, (R)-1-{1-[1-(1-Methyl-1H-pyrazol-4-ylmethyl)-piperidin-4-yl]-1,6-dihydro-1,3,5,6-tetraaza-as-indacen-2-yl}-ethanol]: 1380 nM, 117 nM, 383 nM and 9.45 nM.
The matching figures for `C[C@@H](O)c1nc2cnc3[nH]ccc3c2n1C1CCN(Cc2ccnn2C)CC1` [Example 819, (R)-1-{1-[1-(2-Methyl-2H-pyrazol-3-ylmethyl)-piperidin-4-yl]-1,6-dihydro-1,3,5,6-tetraaza-as-indacen-2-yl}-ethanol]: 161 nM, 44.9 nM, 61.8 nM and 10.9 nM.
Consider `CCn1nccc1CN1CCC(n2c([C@@H](C)O)nc3cnc4[nH]ccc4c32)CC1` [Example 820, (R)-1-{1-[1-(2-Ethyl-2H-pyrazol-3-ylmethyl)-piperidin-4-yl]-1,6-dihydro-1,3,5,6-tetraaza-as-indacen-2-yl}-ethanol], for which the Ki on TYK2 came out at 166 nM; at JAK3, 35.8 nM; on JAK2 it was 61 nM; at JAK1, 12 nM.
Turning to `Cc1cc(CN2CCC(n3c([C@@H](C)O)nc4cnc5[nH]ccc5c43)CC2)n(C)n1` [Example 821, (R)-1-{1-[1-(2,5-Dimethyl-2H-pyrazol-3-ylmethyl)-piperidin-4-yl]-1,6-dihydro-1,3,5,6-tetraaza-as-indacen-2-yl}-ethanol], the inhibitory constant (Ki) at TYK2 amounted to 473 nM; on JAK3, 55.3 nM; on JAK2, 125 nM; at JAK1 it was 17.7 nM.
The matching figures for `CCn1cc(CN2CCC(n3c([C@@H](C)O)nc4cnc5[nH]ccc5c43)CC2)cn1` [Example 822, (R)-1-{1-[1-(1-Ethyl-1H-pyrazol-4-ylmethyl)-piperidin-4-yl]-1,6-dihydro-1,3,5,6-tetraaza-as-indacen-2-yl}-ethanol]: 2810 nM, 311 nM, 894 nM and 18.1 nM.
The matching figures for `C[C@@H](O)c1nc2cnc3[nH]ccc3c2n1C1CCN(Cc2cncn2C)CC1` [Example 823, (R)-1-{1-[1-(3-Methyl-3H-imidazol-4-ylmethyl)-piperidin-4-yl]-1,6-dihydro-1,3,5,6-tetraaza-as-indacen-2-yl}-ethanol]: 179 nM, 84.8 nM, 171 nM and 22.2 nM.
The matching figures for `C[C@@H](O)c1nc2cnc3[nH]ccc3c2n1C1CCN(Cc2ccn(C)n2)CC1` [Example 825, (R)-1-{1-[1-(1-Methyl-1H-pyrazol-3-ylmethyl)-piperidin-4-yl]-1,6-dihydro-1,3,5,6-tetraaza-as-indacen-2-yl}-ethanol]: 1960 nM, 143 nM, 350 nM and 26 nM.
Regarding `C[C@@H](O)c1nc2cnc3[nH]ccc3c2n1C1CCN(Cc2nccn2C)CC1` [Example 826, (R)-1-{1-[1-(1-Methyl-1H-imidazol-2-ylmethyl)-piperidin-4-yl]-1,6-dihydro-1,3,5,6-tetraaza-as-indacen-2-yl}-ethanol], the Ki on TYK2 was 1160 nM; at JAK3, 209 nM; on JAK2 it was 419 nM; at JAK1, 47 nM.
The matching figures for `C[C@@H](O)c1nc2cnc3[nH]ccc3c2n1C1CCN(C2COC2)CC1` [Example 832, (R)-1-[1-(1-Oxetan-3-yl-piperidin-4-yl)-1,6-dihydro-1,3,5,6-tetraaza-as-indacen-2-yl]-ethanol]: 493 nM, 516 nM, 428 nM and 55.5 nM.
The matching figures for `CC(C)(C)NCCOCc1nc2cnc3[nH]ccc3c2n1C1CCN(CCC#N)CC1` [Example 833, 3-{4-[2-(2-tert-Butylamino-ethoxymethyl)-6H-1,3,5,6-tetraaza-as-indacen-1-yl]-piperidin-1-yl}-propionitrile]: 125 nM, 101 nM, 14 nM and 18.1 nM.
With `N#CCCN1CCC(n2c(COCC(F)(F)F)nc3cnc4[nH]ccc4c32)CC1` [Example 834, 3-{4-[2-(2,2,2-Trifluoro-ethoxymethyl)-6H-1,3,5,6-tetraaza-as-indacen-1-yl]-piperidin-1-yl}-propionitrile], the Ki on TYK2 is 637 nM; at JAK3, 85.4 nM; on JAK2, 117 nM; at JAK1, 33.5 nM.
Turning to `N#CCCN1CCC(n2c(COCc3ccc(F)c(F)c3)nc3cnc4[nH]ccc4c32)CC1` [Example 835, 3-{4-[2-(3,4-Difluoro-benzyloxymethyl)-6H-1,3,5,6-tetraaza-as-indacen-1-yl]-piperidin-1-yl}-propionitrile], the Ki came out at 320 nM on TYK2, 29.6 nM at JAK3, 59.1 nM at JAK2 and 37.9 nM on JAK1.
Take `N#CCCN1CCC(n2c(COCC3CCOC3)nc3cnc4[nH]ccc4c32)CC1` (centres unmarked) [Example 836, 3-{4-[2-(Tetrahydro-furan-3-ylmethoxymethyl)-6H-1,3,5,6-tetraaza-as-indacen-1-yl]-piperidin-1-yl}-propionitrile]: the Ki came out at 384 nM at TYK2, 95.1 nM on JAK3, 89 nM at JAK2 and 38.6 nM at JAK1.
The matching figures for `N#CCCN1CCC(n2c(COC3CCOCC3)nc3cnc4[nH]ccc4c32)CC1` [Example 837, 3-{4-[2-(Tetrahydro-pyran-4-yloxymethyl)-6H-1,3,5,6-tetraaza-as-indacen-1-yl]-piperidin-1-yl}-propionitrile]: 298 nM, 114 nM, 83.2 nM and 39.6 nM.
With `N#CCCN1CCC(n2c(COCC3CCCC3)nc3cnc4[nH]ccc4c32)CC1` [Example 838, 3-[4-(2-Cyclopentylmethoxymethyl-6H-1,3,5,6-tetraaza-as-indacen-1-yl)-piperidin-1-yl]-propionitrile], the inhibition constant (Ki) stood at 618 nM at TYK2, 90.4 nM on JAK3, 85.5 nM at JAK2 and 54.2 nM at JAK1.
For the molecule `N#CCCN1CCC(n2c(COCC3CC3)nc3cnc4[nH]ccc4c32)CC1` [Example 839, 3-[4-(2-Cyclopropylmethoxymethyl-6H-1,3,5,6-tetraaza-as-indacen-1-yl)-piperidin-1-yl]-propionitrile], the Ki at TYK2 amounted to 595 nM; on JAK3, 73.5 nM; on JAK2 it was 106 nM; at JAK1, 61.7 nM.
